The nature of data set [1]: Hepatorenal toxicity in ICR mouse assessed as change in AST level at 30 mg/kg, iv measured after 48 hrs. In kind it is organism-based. Conditions: in vivo.
Data set [2] concerns MDA-MB-231. The experiment in a line: Induction of apoptosis in human MDA-MB-231 cells assessed as late apoptotic cells incubated for 24 hrs in presence of UV by Annexin V-FITC/PI staining based flow cytometry (reference value: 2.4 %). In kind it is functional. (In flow cytometry, cells or beads pass a laser one at a time.)
In data set [3] the test system is MDA-MB-231. The experiment in a line: Induction of apoptosis in human MDA-MB-231 cells assessed as early apoptotic cells incubated for 24 hrs in presence of UV by Annexin V-FITC/PI staining based flow cytometry (reference value: 1.94 %). In kind it is functional.
Data set [4] in a line: Hepatorenal toxicity in ICR mouse assessed as change in ALT level at 30 mg/kg, iv measured after 48 hrs. It counts as organism-based. Conditions: in vivo.
A short description of data set [5]: Prodrug conversion in PBS at pH 7.4 exposed to UV assessed as 8-HQ release by measuring retention time at 50 uM measured for 30 mins by HPLC analysis. Particulars: buffer, pH 7.4, 0.5 h. It counts as ADME.
Data set [6] has as its system MDA-MB-231. The experiment in a line: Induction of cell cycle arrest in human MDA-MB-231 cells assessed as accumulation at G0/G1 phase in presence of UV by PI staining based flow cytometry (reference value: 43.25 %). In kind it is functional.
The subject of data set [7] is MDA-MB-231. The experiment in a line: Induction of apoptosis in human MDA-MB-231 cells assessed as viable cells incubated for 24 hrs in presence of UV by Annexin V-FITC/PI staining based flow cytometry (reference value: 92.06 %). In kind it is functional.
Data set [8] concerns MDA-MB-231. The experiment in a line: Cytotoxicity against human MDA-MB-231 cells incubated for 48 hrs in presence of UV by MTT assay. It counts as functional, cell-based. A general note: Tetrazolium assays rely on reduction of a dye to a coloured formazan, in cell work by metabolically active cells.
The test system of data set [9] is MDA-MB-231. The experiment in a line: Induction of apoptosis in human MDA-MB-231 cells assessed as viable cells incubated for 24 hrs by Annexin V-FITC/PI staining based flow cytometry (reference value: 92.06 %). In kind it is functional.
For data set [10], the system named is MDA-MB-231. The experiment in a line: Induction of apoptosis in human MDA-MB-231 cells assessed as necrotic cells incubated for 24 hrs by Annexin V-FITC/PI staining based flow cytometry (reference value: 3.6 %). It counts as functional.
Data set [11] is described as follows: Prodrug conversion in PBS at pH 7.4 exposed to UV assessed as 8-Hydroxy-1-(4-(4,4,5,5-tetramethyl-1,3,2-dioxaborolan-2-yl)benzyl)quinolin-1-ium bromide metabolite formation by measuring retention time at 50 uM measured for 30 mins by HPLC analysis. It counts as ADME. Particulars: buffer, pH 7.4, 0.5 h.
The subject of a further data set is MCF-10A. The experiment in a line: Cytotoxicity against human MCF-10A cells exposed to UV incubated for 48 hrs by MTT assay. In kind it is toxicity, cell-based.
Data set [12] deals with MDA-MB-231. The experiment in a line: Induction of cell cycle arrest in human MDA-MB-231 cells assessed as accumulation at G0/G1 phase by PI staining based flow cytometry (reference value: 43.25 %). In kind it is functional.
In data set [13] the test system is MDA-MB-231. The experiment in a line: Inhibition of mitochondrial membrane potential in human MDA-MB-231 cells incubated for 24 hrs in presence of UV by JC-1 dye based analysis (reference value: 5.51 %). In kind it is functional.
Data set [14] has as its system MDA-MB-231. The experiment in a line: Induction of apoptosis in human MDA-MB-231 cells assessed as late apoptotic cells incubated for 24 hrs by Annexin V-FITC/PI staining based flow cytometry (reference value: 2.4 %). In kind it is functional.
Data set [15] deals with MDA-MB-231. The experiment in a line: Inhibition of mitochondrial membrane potential in human MDA-MB-231 cells incubated for 24 hrs by JC-1 dye based analysis (reference value: 5.51 %). In kind it is functional.
Data set [16] has as its system MDA-MB-231. The experiment in a line: Cytotoxicity against human MDA-MB-231 cells incubated for 48 hrs in absence of UV by MTT assay. It counts as functional, cell-based.
Data set [17] is described as follows: Hepatorenal toxicity in ICR mouse assessed as change in serum creatinine level at 30 mg/kg, iv measured after 48 hrs. It counts as organism-based. Conditions: in vivo.
For data set [18], the system named is MDA-MB-231. The experiment in a line: Induction of apoptosis in human MDA-MB-231 cells assessed as early apoptotic cells incubated for 24 hrs by Annexin V-FITC/PI staining based flow cytometry (reference value: 1.94 %). It counts as functional.
Data set [19] deals with MDA-MB-231. The experiment in a line: Induction of apoptosis in human MDA-MB-231 cells assessed as necrotic cells incubated for 24 hrs in presence of UV by Annexin V-FITC/PI staining based flow cytometry (reference value: 3.6 %). In kind it is functional.
Data set [20] in a line: Hepatorenal toxicity in ICR mouse assessed as change in BUN level at 30 mg/kg, iv measured after 48 hrs. It counts as organism-based. Conditions: in vivo.
Data set [21] in a line: Prodrug conversion in PBS at pH 7.4 containing H2O2 assessed as PBAPE intermediate with exposed quinoline nitrogen by measuring retention time at 50 uM measured for 30 mins by HPLC analysis. It counts as ADME. Conditions: buffer, pH 7.4, 0.5 h.

The source made the active and inactive calls. No cut-off for these calls is given here.

Here are results for one compound from ChEMBL document CHEMBL6153037, “Developing dual-responsive quinolinium prodrugs of 8-hydroxyquinoline by harnessing the dual chelating sites” (Eur J Med Chem, 2025).

For the compound `Br.CC1(C)OB(c2ccc(C[n+]3cccc4cccc(OCc5ccccc5[N+](=O)[O-])c43)cc2)OC1(C)C`, the Activity result in [1] is on record as “Non-toxic”; with MDA-MB-231 [2], 19.66%; in the data set with MDA-MB-231 [3], 23.32%; in [4], “Non-toxic”; with MDA-MB-231 [6] it was 58.23%; in the data set on MDA-MB-231 [7], 52.82%. Further, the Activity entry is “Dose-dependent-effect” in the data set with MDA-MB-231 [8]; 80.18% in the data set with MDA-MB-231 [9]; 1.03% in the data set on MDA-MB-231 [10]; “Non-toxic” in the data set with MCF-10A; 45.12% in the data set with MDA-MB-231 [12]; 10.76% in the data set with MDA-MB-231 [14]. Besides, the Activity entry is given as “Non-toxic” in data set [17], 8.03% in the data set with MDA-MB-231 [18], 4.21% with MDA-MB-231 [19] and “Non-toxic” in data set [20]. The Retention_time in data set [5] amounted to 3.6 min; in data set [11] it was 16.4 min; in data set [21], 14.8 min. For the same compound, the “inhibition (INH)” value stood at 62.81% in the data set on MDA-MB-231 [13] and 15.85% with MDA-MB-231 [15]. For the same compound, the outcome with MDA-MB-231 [16] was inactive.
